Laboratory results from PubChem BioAssay AID248 (DTP/NCI, 2004).
Several values for one entry are separate records, joined by “and”; a condition that tells them apart may be missing. Identical values can stand only once. Toxic doses and inconclusive results are not listed. Cut-off read from the data, not from the text of the source: active = T/C of 150% or more; inactive = T/C below 125%.

Test system: L1210 leukemia ip in BDF1 mice, survival T/C
Assay: NCI In Vivo Anticancer Drug Screen. Data for tumor model L1210 Leukemia (intraperitoneal) in B6D2F1 (BDF1) mice
Settings: endpoint: mean survival time, higher = longer survival
Protocol: The antitumor activity of compounds was measured in mice bearing transplantable tumors. Survival or tumor size were measured and the results are expressed as the measurement made in the treated group (T) divided by the measurement made in the vehicle treated control group (C). The tumor model used in this assay is L1210 Leukemia (intraperitoneal) in B6D2F1 (BDF1) mice

[1] = dose: 100.0 mg/kg/injection, schedule: Q01DX009 (ip), vehicle: saline with Tween-80
[2] = dose: 200.0 mg/kg/injection, schedule: Q01DX009 (ip), vehicle: saline with Tween-80
[3] = dose: 400.0 mg/kg/injection, schedule: Q01DX009 (ip), vehicle: saline with Tween-80
[4] = dose: 100.0 mg/kg/injection, schedule: Q01DX001 (ip), vehicle: saline
[5] = dose: 100.0 mg/kg/injection, schedule: Q04DX003 (ip), vehicle: saline
[6] = dose: 200.0 mg/kg/injection, schedule: Q01DX001 (ip), vehicle: saline
[7] = dose: 200.0 mg/kg/injection, schedule: Q04DX003 (ip), vehicle: saline
[8] = dose: 400.0 mg/kg/injection, schedule: Q04DX003 (ip), vehicle: saline
[9] = dose: 100.0 mg/kg/injection, schedule: Q04DX003 (ip), vehicle: Klucel (hydroxypropylcellulose) (HPC)
[10] = dose: 200.0 mg/kg/injection, schedule: Q04DX003 (ip), vehicle: Klucel (hydroxypropylcellulose) (HPC)
[11] = dose: 400.0 mg/kg/injection, schedule: Q04DX003 (ip), vehicle: Klucel (hydroxypropylcellulose) (HPC)

Measured: T/C

O=C1CCCN(Cc2ccccc2)C(=O)N1
inactive: [1] 97 % of control | dose: 100.0 mg/kg/injection, schedule: Q04DX003 (ip), vehicle: saline with Tween-80 103 % of control | [2] 97 % of control | dose: 200.0 mg/kg/injection, schedule: Q04DX003 (ip), vehicle: saline with Tween-80 103 % of control | [3] 97 % of control | dose: 400.0 mg/kg/injection, schedule: Q04DX003 (ip), vehicle: saline with Tween-80 103 % of control

NC(=O)N/N=C(\CF)C(=O)O
inactive: dose: 6.0 mg/kg/injection, schedule: Q01DX009 (ip), vehicle: Klucel (hydroxypropylcellulose) (HPC) 98 % of control | dose: 12.0 mg/kg/injection, schedule: Q01DX009 (ip), vehicle: Klucel (hydroxypropylcellulose) (HPC) 110 % of control | dose: 24.0 mg/kg/injection, schedule: Q01DX009 (ip), vehicle: Klucel (hydroxypropylcellulose) (HPC) 101 % of control | dose: 48.0 mg/kg/injection, schedule: Q01DX009 (ip), vehicle: Klucel (hydroxypropylcellulose) (HPC) 102 % of control

COC1=C(Br)C(=O)c2ncccc2C1=O
inactive: dose: 5.0 mg/kg/injection, schedule: Q01DX001 (ip), vehicle: carboxymethylcellulose (CMC) 104 % of control | dose: 20.0 mg/kg/injection, schedule: Q01DX001 (ip), vehicle: carboxymethylcellulose (CMC) 94 % of control

CCCNc1ncnc2c1cnn2C
inactive: dose: 50.0 mg/kg/injection, schedule: Q01DX009 (ip), vehicle: saline 124 % of control | dose: 50.0 mg/kg/injection, schedule: Q04DX003 (ip), vehicle: saline 100 % of control | [4] 107 % of control | [5] 102 % of control | [6] 104 % of control | [7] 103 % of control

CCOC(CCCN=CN(C)C)OCC
inactive: [5] 102 % of control | [7] 100 % of control | [8] 102 % of control

O=C1OC(=C(Br)Br)C2C3C=CC(C3)C12 (stereo not given)
inactive: [5] 98 % of control | [7] 107 % of control

COc1ccc(C=NCCN=Cc2ccc(OC)c(OC)c2)cc1OC
inactive: [4] 100 % of control | [1] 101 % of control | [5] 92 % of control | [6] 104 % of control | [2] 95 % of control | [7] 87 % of control | dose: 400.0 mg/kg/injection, schedule: Q01DX001 (ip), vehicle: saline 102 % of control | [3] 95 % of control | [8] 92 % of control

CN(C)/C(N)=N/N
inactive: dose: 15.0 mg/kg/injection, schedule: Q01DX Z (ip), vehicle: methylcellulose (MC) 113 % of control | dose: 30.0 mg/kg/injection, schedule: Q01DX Z (ip), vehicle: methylcellulose (MC) 109 % of control | dose: 60.0 mg/kg/injection, schedule: Q01DX Z (ip), vehicle: methylcellulose (MC) 100 % of control | dose: 120.0 mg/kg/injection, schedule: Q01DX Z (ip), vehicle: methylcellulose (MC) 103 % of control | dose: 125.0 mg/kg/injection, schedule: Q01DX Z (oral), vehicle: methylcellulose (MC) 90 % of control | dose: 240.0 mg/kg/injection, schedule: Q01DX Z (ip), vehicle: methylcellulose (MC) 101 % of control | dose: 250.0 mg/kg/injection, schedule: Q01DX Z (oral), vehicle: methylcellulose (MC) 101 % of control | dose: 375.0 mg/kg/injection, schedule: Q01DX Z (ip), vehicle: methylcellulose (MC) 110 % of control | dose: 480.0 mg/kg/injection, schedule: Q01DX Z (ip), vehicle: methylcellulose (MC) 107 % of control

Cc1ccc(S(=O)(=O)/N=S(/C)c2ccccc2)cc1 (stereo not given)
inactive: dose: 100.0 mg/kg/injection, schedule: Q01DX009 (ip), vehicle: saline sonified 95 % of control | dose: 100.0 mg/kg/injection, schedule: Q04DX003 (ip), vehicle: saline sonified 94 % of control | dose: 200.0 mg/kg/injection, schedule: Q01DX009 (ip), vehicle: saline sonified 108 % of control | dose: 200.0 mg/kg/injection, schedule: Q04DX003 (ip), vehicle: saline sonified 106 % of control | dose: 400.0 mg/kg/injection, schedule: Q01DX009 (ip), vehicle: saline sonified 97 % of control | dose: 400.0 mg/kg/injection, schedule: Q04DX003 (ip), vehicle: saline sonified 103 % of control

Cc1ccnc(-n2c(N)cc(=O)[nH]c2=S)c1
inactive: dose: 100.0 mg/kg/injection, schedule: Q04DX002 (ip), vehicle: saline 102 % of control | dose: 200.0 mg/kg/injection, schedule: Q04DX002 (ip), vehicle: saline 107 % of control | dose: 400.0 mg/kg/injection, schedule: Q04DX002 (ip), vehicle: saline 107 % of control

CCOC(=O)/C(O)=C\c1nc(OCC)nc(OCC)c1[N+](=O)[O-]
inactive: dose: 93.8 mg/kg/injection, schedule: Q04DX002 (ip), vehicle: Klucel (hydroxypropylcellulose) (HPC) 95 % of control | dose: 187.5 mg/kg/injection, schedule: Q04DX002 (ip), vehicle: Klucel (hydroxypropylcellulose) (HPC) 95 % of control | dose: 375.0 mg/kg/injection, schedule: Q04DX002 (ip), vehicle: Klucel (hydroxypropylcellulose) (HPC) 100 % of control

Cc1ccc(S(=O)(=O)N(CCCc2c(Cc3ccccc3)nc(N)[nH]c2=O)c2ccccc2)cc1
inactive: dose: 100.0 mg/kg/injection, schedule: Q01DX009 (ip), vehicle: Klucel (hydroxypropylcellulose) (HPC) 88 % of control | [9] 97 % of control and 105 % of control | dose: 200.0 mg/kg/injection, schedule: Q01DX009 (ip), vehicle: Klucel (hydroxypropylcellulose) (HPC) 93 % of control | [10] 113 % of control and 88 % of control | dose: 400.0 mg/kg/injection, schedule: Q01DX009 (ip), vehicle: Klucel (hydroxypropylcellulose) (HPC) 100 % of control | [11] 93 % of control

CCS(=O)(=O)c1ccc(NC(=O)OC2CCCCCC2)cc1
inactive: dose: 100.0 mg/kg/injection, schedule: Q01DX001 (ip), vehicle: other 91 % of control | dose: 200.0 mg/kg/injection, schedule: Q01DX001 (ip), vehicle: other 91 % of control | dose: 400.0 mg/kg/injection, schedule: Q01DX001 (ip), vehicle: other 93 % of control

CCN(CC)CCOCCO
inactive: [5] 96 % of control | [7] 102 % of control | [8] 109 % of control

COC(=O)N1C(c2ccccc2)CS1(=O)=O (stereo not given)
inactive: dose: 25.0 mg/kg/injection, schedule: Q04DX002 (ip), vehicle: Klucel (hydroxypropylcellulose) (HPC) 106 % of control | dose: 50.0 mg/kg/injection, schedule: Q04DX002 (ip), vehicle: Klucel (hydroxypropylcellulose) (HPC) 113 % of control | dose: 100.0 mg/kg/injection, schedule: Q04DX002 (ip), vehicle: Klucel (hydroxypropylcellulose) (HPC) 97 % of control and 109 % of control

CCOc1ccc(OC(=O)c2ccc(O)cc2)cc1
inactive: [9] 106 % of control | [10] 101 % of control | [11] 96 % of control

O=S1(=O)C=C(c2ccccc2)C(c2ccccc2)=C1
inactive: dose: 3.12 mg/kg/injection, schedule: Q01DX009 (ip), vehicle: saline with Tween-80 98 % of control | dose: 6.25 mg/kg/injection, schedule: Q01DX009 (ip), vehicle: saline with Tween-80 106 % of control | dose: 12.5 mg/kg/injection, schedule: Q01DX009 (ip), vehicle: saline with Tween-80 101 % of control | dose: 25.0 mg/kg/injection, schedule: Q01DX009 (ip), vehicle: saline with Tween-80 101 % of control and 108 % of control | dose: 25.0 mg/kg/injection, schedule: Q04DX003 (ip), vehicle: Klucel (hydroxypropylcellulose) (HPC) 95 % of control | dose: 50.0 mg/kg/injection, schedule: Q01DX009 (ip), vehicle: saline with Tween-80 95 % of control | dose: 50.0 mg/kg/injection, schedule: Q04DX003 (ip), vehicle: Klucel (hydroxypropylcellulose) (HPC) 102 % of control | [9] 118 % of control and 91 % of control

CCC(C)(C)C(=O)Nc1cccc(OC(=O)NC)c1
inactive: [3] 93 % of control
